Source: US20240010679A1, “ANTIN[…] AND USES THEREOF” (THE UNIVERSITY OF BRITISH COLUMBIA, priority 2020, published 2024)
Converted amounts (≈) assume the structure as drawn. “And” between values parts separate entries of the source, which are not always exact repeats. Equal entries are not always repeated. “Also recorded” adds a separate entry of the source. Where two headings read alike, the source gives them in different places.

How the values were obtained:
Plasma stability assay = type: in vitro ADME, mouse; settings: for remaining at 1 h, 0.315 mmol/L: mouse plasma, 37° C., read-out: Intact peptide after 1 h in plasma
Method: (§1) Peptides (1.5 g/L) dissolved in saline/TWEEN 80/DMSO (90:5:5, v/v) were mixed with mouse plasma or human cerebrospinal fluid, respectively, to a final concentration of 0.315 mmol/L and incubated in a thermomixer (37° C., 750 rpm) Aliquots (45 μL) were mixed with aqueous acetonitrile (90%, v/v, 300 μL) containing formic acid (FA, 0.1%, v/v) and incubated on ice (30 min). After two centrifugation steps (12,000×g, 5 min), the supernatant (300 μL) was diluted in water (900 μL), dried by lyophilization, reconstituted in aqueous acetonitrile (4.5%, v/v) containing FA (0.1%, v/v), stored at −20° C., and analyzed with reverse-phase chromatography (RPC) on a C8-column (1 mm×150 mm) with a linear aqueous acetonitrile gradient typically from 5 to 95% eluent B in 15 min (eluent A: 0.1% (v/v) aqueous FA; eluent B: 90% aqueous acetonitrile containing 0.1% (v/v) FA. The RPC was coupled on-line to a UV detector measuring the absorbance at 214 nm and a mass spectrometer (MS) for peak identification. Peptide quantities were estimated using peak areas of the UV signal relative to the initial peak areas (t=0).

human DOR = human DOR (Homo sapiens, UniProt P41143); settings: relative scintillation compared to Leu-ENK at 6 nmol/L, [3H]DADLE displacement, mean of duplicates
Chain of human DOR (P41143 whole entry): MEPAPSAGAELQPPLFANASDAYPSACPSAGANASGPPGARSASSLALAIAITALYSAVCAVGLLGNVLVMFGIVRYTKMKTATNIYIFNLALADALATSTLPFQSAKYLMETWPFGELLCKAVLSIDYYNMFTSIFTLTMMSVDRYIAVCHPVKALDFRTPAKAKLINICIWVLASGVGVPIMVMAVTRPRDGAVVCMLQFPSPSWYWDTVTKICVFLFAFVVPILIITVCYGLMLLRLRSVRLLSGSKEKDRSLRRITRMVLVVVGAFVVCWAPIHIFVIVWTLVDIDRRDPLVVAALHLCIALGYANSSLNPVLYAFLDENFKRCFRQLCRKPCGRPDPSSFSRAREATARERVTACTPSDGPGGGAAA
Method: Binding studies were performed by Eurofins Scientific (Cereb, France). Briefly, COS-1 cells transfected with plasmids encoding human DOR (Gene ID: 4985) were grown in Dulbecco's modified Eagle's medium with 10% fetal calf serum and scraped from plates. Membranes were prepared using a Dounce homogenizer and stored at −80° C. until used. Membranes (40 μg protein/tube) were suspended in Tris-HCl, pH 7.4, for 2 h at 25° C., rapidly filtered on 0.1% polyethylenimine-pretreated GF/B filters and washed with the same cold Tris buffer (3×) using a Brandel cell harvester. […] Nonspecific binding was determined in the presence of naltrexone (10 μmol/L).

female CD1 mice [1] = assay: Dependence test (naloxone-induced jumps); settings: twice daily s.c., KK-103 13 mg/kg, morphine 10 mg/kg; naloxone 4 mg/kg i.p., first 10 min
[2] = Plasma and brain concentrations after injection (UPLC); type: in vivo; settings: female, CD-1, mouse; for tissue level at time at 2 h: 2 h after s.c. injection; for half-life: 50 mg/kg, read-out: elimination half-life
Method: Blood collection from mice was performed by saphenous vein punctuation (volume withdrawn <7 mL/kg) followed by a cardiac puncture later, allowing for 2 sampling time points per animal with a minimum sampling interval of 50 min. Cardiac puncture was an experimental endpoint after which animals were euthanized using isoflurane followed by cervical dislocation. Blood samples were collected in EDTA coated collection tubes and chilled on ice immediately after collection. Blood plasma was separated from whole blood by centrifugation at 2.000 g for 7 min and carefully removed from the cell pellet. Blood plasma samples were immediately frozen on dry ice and stored at −80 C until further analysis.
Samples for liquid chromatography-mass spectrometry analysis were prepared by acetonitrile protein precipitation. Therefore, 50 μL of plasma was combined with 300 μL ice cold 90% acetonitrile containing 0.1% formic acid, briefly vortexed and put on ice for 30 min. After that samples were centrifuged at 4 C for 5 min (>12 k rpm) and supernatant (325 μL) transferred in a new tube. The previous centrifugation step was repeated and a final volume of 305 μL of the supernatant transferred into a new 1.5 mL tube. Water (800 μL) was added to samples after which they were frozen and lyophilized. The dried samples were resolubilized in 50 μL 4.5% acetonitrile, 0.1% formic acid in water, vortexed (1 min), sonicated (5 min), vortexed (1 min) and centrifuged for 5 min (>12 k rpm). Samples were measured in an ACQUITY UPLC H-Class chromatography system (Waters, Milford, MA) and a sample volume of 10 μL was injected onto the reverse phase column.
An ACQUITY UPLC H-Class chromatography system (Waters, Milford, MA) coupled on-line to a photodiode array detector (absorbance recorded at 214 nm, Waters) and to the electrospray ionization source on a mass spectrometer (QDa detector, Waters) operated in the positive ion mode was used. Separation relied on a BEH-C18 column (inner diameter: 1.1 mm; length: 50 mm; particle size: 1.7 μm, Waters) at a flow rate of 0.1 mL/min using a linear aqueous acetonitrile gradient in the presence of FA (0.1%, v/v).
Ionization was carried out at a source temperature of 450° C. using a cone voltage of 10 V and a capillary voltage of 1.5 kV. Mass spectra were typically acquired for an m/z range from 50 to 1250 at a sampling rate of 2 points per second. Quantities of the peptide were determined based on a calibration curve of the analyte in mouse plasma and the peak areas of the UV signal at 214 nm as well as mass spectrometry by detecting the singly charged molecular ions.

CSF stability assay = type: in vitro ADME, human; settings: 5 h of incubation
Method: as §1

female CD-1 mice [3] = assay: Respiratory rate assay; settings: s.c.; for breathing depression: KK-103 13 mg/kg, morphine 10 mg/kg, FIG. 10C
Method: The respiratory rate was assessed in awake mice lightly restrained in a well-ventilated 50 mL falcon tube with a darkened tip. Prior to the drug treatment, each animal was habituated in the tube for 30 min. The falcon tube was secured onto a stand facing lengthwise to a video camera. […] Animals were recorded at selected time points for 10 min to measure the respiration rate.

female CD1 mice [4] = assay: Toxicity, highest deliverable single dose; type: in vivo, mouse; settings: single s.c. dose
Method: Animals were monitored and evaluated every 30 min. After 3 h, the time of maximal antinociceptive effect, animals were euthanized.

[5] = tested on: human liver microsome enzymes; assay: Inhibition of human liver microsome enzymes; type: in vitro ADME
female CD-1 mice [6] = assay: Open field test; settings: 15 mg/kg s.c.
Text: (§2) Mice were allowed an acclimatization period of at least one week in the animal facility before experiments.

[7] = Solubility in injection vehicle; type: physicochemical; settings: normal saline/TWEEN 80 (9/1, v/v) injection vehicle
[8] = Stability in the presence of human liver microsomes; type: in vitro ADME; settings: after 1 h, read-out: drug degradation in the presence of human liver microsomes
female CD1 mice [9] = settings: mouse, in vivo; cited from earlier work
female CD-1 mice [10] = assay: Formalin foot assay; type: in vivo, mouse; settings: s.c.
Method: as §2
On the day of the experiment, mice were acclimatized to the experimental setup by putting them in darkened, non-transparent plexiglas cylinders (height, 20 cm; diameter, 9 cm) placed on a glass plane for 2 h. […] After successful injection, mice were immediately placed into cylinders and their behavior was monitored for 1 h. […] The accumulated licking and biting time of each animal was determined and recorded in 5 min bins. The total response time was plotted as early phase 1 from 0 to 5 min, and late phase 2 from 20 to 40 min after formalin injection.

## CC(C)C[C@H](NC(=O)[C@H](Cc1ccccc1)NC(=O)CNC(=O)CNC(=O)[C@@H](N)Cc1ccc(O)cc1)C(=O)O [Leu-ENK, YGGFL, reference compound]
Plasma stability assay
  remaining at 1 h, 0.315 mmol/L: 23 ± 3%

## COC(=O)[C@H](CC(C)C)NC(=O)[C@H](Cc1ccccc1)NC(=O)CNC(=O)CNC(=O)[C@H](Cc1ccc(O)cc1)NC(=O)C(C)(C)C [KK-102]
Plasma stability assay
  conversion in mouse plasma (deesterification of methyl ester): converting to KK-103; also recorded: rapidly deesterifies to KK-103
  remaining at 1 h, 0.315 mmol/L: 93 ± 1%
Human DOR; listed as KK-102/ KK-103
  Relative Binding to DOR: 68%

## COC(=O)[C@H](CC(C)C)NC(=O)[C@H](Cc1ccccc1)NC(=O)CNC(=O)CNC(=O)[C@H](Cc1ccc(O)cc1)NC(C)=O [KK-14]
Plasma stability assay
  remaining at 1 h, 0.315 mmol/L: 82 ± 3%
Human DOR
  Relative Binding to DOR: 38%

## COC(=O)[C@H](CC(C)C)NC(=O)[C@H](Cc1ccccc1)NC(=O)CNC(=O)CNC(=O)[C@H](Cc1ccc(O)cc1)NC(=O)Cc1ccccc1 [KK-81]
Plasma stability assay
  remaining at 1 h, 0.315 mmol/L: 88 ± 11%
Human DOR
  Relative Binding to DOR: 41%

## CC(C)C[C@H](NC(=O)[C@H](Cc1ccccc1)NC(=O)CNC(=O)CNC(=O)[C@H](Cc1ccc(O)cc1)NC(=O)C(C)(C)C)C(=O)O [KK-103]
Female CD1 mice [1]
  physical dependence: withdrawal jumps after naloxone: not a single jump was observed
Plasma stability assay
  time stable in mouse plasma: at least 5 h
  remaining at 1 h, 0.315 mmol/L: 93%
Plasma stability assay; extrapolated
  half-life in mouse plasma: 36 h
Plasma stability assay; mouse, plasma, extrapolated
  half-life at 0.315 mmol/L: 37 h
[2]; brain, sc, read-out: concentration in brain
  tissue level at time at 2 h: 200 ng/g
[2]; plasma, iv
  half-life: 4.8 min
[2]; plasma, sc
  half-life: 8.9 min
[2]; plasma, sc, read-out: concentration in plasma
  tissue level at time at 2 h: 170000 ng/g
CSF stability assay
  stability in cerebrospinal fluid: almost no degradation
Female CD-1 mice [3]; 13 mg/kg, any time point between 30 and 240 min
  respiration rate versus vehicle: comparable to that of mice treated with vehicle
Female CD-1 mice [3]
  breathing depression: did not induce breathing depression
Female CD1 mice [4]
  toxicity at the highest deliverable dose: no toxicity
[5]
  inhibition of human liver microsome enzymes: did not inhibit
Female CD-1 mice [6]
  effect on locomotor activity: without effecting the locomotor activity
[7]
  solubility: 5000 µg/mL (≈ 7.82 mM)
Human DOR
  Relative Binding to DOR: 65% and ~70%
[8]
  metabolised at 1 h: < 10%

## CCCCCC(=O)N[C@@H](Cc1ccc(O)cc1)C(=O)NCC(=O)NCC(=O)N[C@@H](Cc1ccccc1)C(=O)N[C@@H](CC(C)C)C(=O)OC [KK-93]
Plasma stability assay
  remaining at 1 h, 0.315 mmol/L: 85 ± 11%
Human DOR
  Relative Binding to DOR: 33%

## C=CCCC(=O)N[C@@H](Cc1ccc(O)cc1)C(=O)NCC(=O)NCC(=O)N[C@@H](Cc1ccccc1)C(=O)N[C@@H](CC(C)C)C(=O)OC [KK-108]
Plasma stability assay
  remaining at 1 h, 0.315 mmol/L: 73 ± 7%
Human DOR
  Relative Binding to DOR: 34%

## CN1CC[C@]23c4c5ccc(O)c4O[C@H]2[C@@H](O)C=C[C@H]3[C@H]1C5 [morphine]
Female CD1 mice [1]
  physical dependence: withdrawal jumps after naloxone: significant withdrawal syndromes
Female CD1 mice [9]
  dose up to which safe to use: up to 60 mg/kg
Female CD-1 mice [3]; 10 mg/kg, 30 min post injection
  decrease of respiratory rate compared with vehicle control: 56%
Female CD-1 mice [3]
  breathing depression: significant reduction of breathing rate
Female CD-1 mice [10]; 10 mg/kg, phase 2 (20-40 min)
  nociceptive response in phase 2, in words: completely diminished the nociceptive response
Female CD-1 mice [10]; morphine 10 mg/kg, KK-103 13 mg/kg
  reduction of paw licking and biting time, phase 1 (0-5 min), compared to the control: 30%

## COC(=O)[C@H](CC(C)C)NC(=O)[C@H](Cc1ccccc1)NC(=O)CNC(=O)CNC(=O)[C@H](Cc1ccc(O)cc1)NC(=O)C1CCCCC1 [KK-112]
Plasma stability assay
  remaining at 1 h, 0.315 mmol/L: 62 ± 7%
Human DOR
  Relative Binding to DOR: 13%

## CCCCCCCC(=O)N[C@@H](Cc1ccc(O)cc1)C(=O)NCC(=O)NCC(=O)N[C@@H](Cc1ccccc1)C(=O)N[C@@H](CC(C)C)C(=O)OC [KK-105]
Plasma stability assay
  remaining at 1 h, 0.315 mmol/L: 80 ± 12%
Human DOR
  Relative Binding to DOR: 59%
